Measurements from ChEMBL document CHEMBL1149359, “Total synthesis and biological evaluation of ustiloxin natural products and two analogs” (Bioorg Med Chem Lett, 2006).

System: CA46
Assay: Cytotoxicity against human CA46 cell line
Type: functional, cell-based

| Structure (SMILES) | IC50 [nM] |
| --- | --- |
| CC[C@H](C)[C@@H]([C@@H](CC(=O)N1CCC[C@H]1[C@H](OC)[C@@H](C)C(=O)N[C@@H](Cc1ccccc1)c1nccs1)OC)N(C)C(=O)[C@@H](NC(=O)[C@H](C(C)C)N(C)C)C(C)C [DOLASTATIN-10] | 30 |
| CC[C@@]1(C)Oc2cc(c([S+]([O-])C[C@@H](O)C[C@H](N)C(=O)O)cc2O)[C@@H](O)[C@H](NC)C(=O)N[C@@H](C(C)C)C(=O)N[C@@H]1C(=O)NCC(=O)O (some centres not stated) [USTILOXIN A] | 2500 |

Target: Tubulin
Assay: Inhibition of tubulin polymerization
Type: protein-complex assay, Homo sapiens

| Structure (SMILES) | IC50 [nM] |
| --- | --- |
| CC[C@@]1(C)Oc2cc(ccc2O)[C@@H](O)[C@H](NC)C(=O)N[C@@H](C)C(=O)N[C@@H]1C(=O)NCC(=O)O [USTILOXIN F] | 8200 |
| CC[C@@H](C)[C@@H]1NC(=O)[C@@H](NC)[C@H](O)c2ccc(O)c(c2)O[C@](C)(CC)[C@@H](C(=O)NCC(=O)O)NC1=O | 4800 |
| CC[C@@]1(C)Oc2cc(ccc2OC)[C@@H](O)[C@H](NC)C(=O)N[C@@H](C(C)C)C(=O)N[C@@H]1C(=O)NCC(=O)O | > 40000 |
| CC[C@@]1(C)Oc2cc(ccc2O)[C@@H](O)[C@H](NC)C(=O)N[C@@H](C(C)C)C(=O)N[C@@H]1C(=O)NCC(=O)O [USTILOXIN D] | 1500 |
| CC[C@@]1(C)Oc2cc(c([S+]([O-])C[C@@H](O)C[C@H](N)C(=O)O)cc2O)[C@@H](O)[C@H](NC)C(=O)N[C@@H](C(C)C)C(=O)N[C@@H]1C(=O)NCC(=O)O (some centres not stated) [USTILOXIN A] | 1100 |
